Experimental data taken from the supplement of paper PMC4932681.

Assays:
BT-474 [1] = assay: drug sensitivity score (DSS) (DSS (dimensionless)); higher = more sensitive; extreme values may be limits of the assay; settings: 72 h
Summary of the method: (§1)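 CellTiter-Glo viability was the readout, taken on a PHERAstar and normalised to vehicle-only and positive controls. It was measured after breast cancer cell lines and their resistant derivatives spent 72 h at 37 °C in 384-well plates containing library drugs at five concentrations spanning a 10 000-fold range, with 1 μM of the selecting drug in the medium of resistant lines. From logistic dose–response fits in the Breeze pipeline came drug sensitivity score, relative IC50 (curve midpoint) and top-dose inhibition.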

MCF-7 [2] = assay: as above; settings: 72 h
Summary of the method: as §1

ZR-75-1 Tam2 [3] = assay: as above; settings: 4-OH-tamoxifen in medium 1 µM; 72 h
Summary of the method: as §1

BT-474 Tam2 [4] = assay: as above; settings: 4-OH-tamoxifen in medium 1 µM; 72 h
Summary of the method: as §1

MCF-7 Tam1 [5] = assay: as above; settings: 4-OH-tamoxifen in medium 1 µM; 72 h
Summary of the method: as §1

ZR-75-1 [6] = assay: as above; settings: 72 h
Summary of the method: as §1

ZR-75-1 Tam1 [7] = assay: as above; settings: 4-OH-tamoxifen in medium 1 µM; 72 h
Summary of the method: as §1

T-47D Tam2 [8] = assay: as above; settings: 4-OH-tamoxifen in medium 1 µM; 72 h
Summary of the method: as §1

T-47D Tam1 [9] = assay: as above; settings: 4-OH-tamoxifen in medium 1 µM; 72 h
Summary of the method: as §1

T-47D [10] = assay: as above; settings: 72 h
Summary of the method: as §1

BT-474 Tam1 [11] = assay: as above; settings: 4-OH-tamoxifen in medium 1 µM; 72 h
Summary of the method: as §1

BT-474 [12] = assay: relative IC50 (midpoint of fitted logistic curve, plateau may be below 50% inhibition; CellTiter-Glo viability); higher = less potent; settings: 72 h
Summary of the method: as §1

MCF-7 [13] = assay: as above; settings: 72 h
Summary of the method: as §1

ZR-75-1 Tam2 [14] = assay: as above; settings: 4-OH-tamoxifen in medium 1 µM; 72 h
Summary of the method: as §1

BT-474 Tam2 [15] = assay: as above; settings: 4-OH-tamoxifen in medium 1 µM; 72 h
Summary of the method: as §1

MCF-7 Tam1 [16] = assay: as above; settings: 4-OH-tamoxifen in medium 1 µM; 72 h
Summary of the method: as §1

ZR-75-1 [17] = assay: as above; settings: 72 h
Summary of the method: as §1

ZR-75-1 Tam1 [18] = assay: as above; settings: 4-OH-tamoxifen in medium 1 µM; 72 h
Summary of the method: as §1

T-47D Tam2 [19] = assay: as above; settings: 4-OH-tamoxifen in medium 1 µM; 72 h
Summary of the method: as §1

T-47D Tam1 [20] = assay: as above; settings: 4-OH-tamoxifen in medium 1 µM; 72 h
Summary of the method: as §1

T-47D [21] = assay: as above; settings: 72 h
Summary of the method: as §1

BT-474 Tam1 [22] = assay: as above; settings: 4-OH-tamoxifen in medium 1 µM; 72 h
Summary of the method: as §1

Row | SMILES | drug sensitivity score (BT-474 [1]; 4-OH-tamoxifen in medium 0 µM) | drug sensitivity score (BT-474 [1]; 4-OH-tamoxifen in medium 1 µM) | drug sensitivity score (MCF-7 [2]; 4-OH-tamoxifen in medium 0 µM) | drug sensitivity score (MCF-7 [2]; 4-OH-tamoxifen in medium 1 µM) | drug sensitivity score (ZR-75-1 Tam2 [3]) | drug sensitivity score (BT-474 Tam2 [4]) | drug sensitivity score (MCF-7 Tam1 [5]) | drug sensitivity score (ZR-75-1 [6]; 4-OH-tamoxifen in medium 0 µM) | drug sensitivity score (ZR-75-1 [6]; 4-OH-tamoxifen in medium 1 µM) | drug sensitivity score (ZR-75-1 Tam1 [7]) | drug sensitivity score (T-47D Tam2 [8]) | drug sensitivity score (T-47D Tam1 [9]) | drug sensitivity score (T-47D [10]; 4-OH-tamoxifen in medium 0 µM) | drug sensitivity score (T-47D [10]; 4-OH-tamoxifen in medium 1 µM) | drug sensitivity score (BT-474 Tam1 [11]) | relative IC50 (BT-474 [12]; 4-OH-tamoxifen in medium 0 µM) [µM] | relative IC50 (BT-474 [12]; 4-OH-tamoxifen in medium 1 µM) [µM] | relative IC50 (MCF-7 [13]; 4-OH-tamoxifen in medium 0 µM) [µM] | relative IC50 (MCF-7 [13]; 4-OH-tamoxifen in medium 1 µM) [µM] | relative IC50 (ZR-75-1 Tam2 [14]) [µM] | relative IC50 (BT-474 Tam2 [15]) [µM] | relative IC50 (MCF-7 Tam1 [16]) [µM] | relative IC50 (ZR-75-1 [17]; 4-OH-tamoxifen in medium 0 µM) [µM] | relative IC50 (ZR-75-1 [17]; 4-OH-tamoxifen in medium 1 µM) [µM] | relative IC50 (ZR-75-1 Tam1 [18]) [µM] | relative IC50 (T-47D Tam2 [19]) [µM] | relative IC50 (T-47D Tam1 [20]) [µM] | relative IC50 (T-47D [21]; 4-OH-tamoxifen in medium 0 µM) [µM] | relative IC50 (T-47D [21]; 4-OH-tamoxifen in medium 1 µM) [µM] | relative IC50 (BT-474 Tam1 [22]) [µM]
1 | Cc1c2oc3c(C)ccc(C(=O)N[C@@H]4C(=O)N[C@H](C(C)C)C(=O)N5CCC[C@H]5C(=O)N(C)CC(=O)N(C)[C@@H](C(C)C)C(=O)O[C@@H]4C)c3nc-2c(C(=O)N[C@@H]2C(=O)N[C@H](C(C)C)C(=O)N3CCC[C@H]3C(=O)N(C)CC(=O)N(C)[C@@H](C(C)C)C(=O)O[C@@H]2C)c(N)c1=O [Dactinomycin] | 11.2 | 17.9 | 20.2 | 20 | 23.2 | 16.1 | 16.1 | 20.5 | 17.4 | 19.8 | 16 | 18.2 | 16.8 | 12 | 20.1 | 0.0227 | 0.0275 | 0.0114 | 0.0135 | 0.00833 | 0.0352 | 0.0241 | 0.0045 | 0.00903 | 0.00956 | 0.00876 | 0.00817 | 0.00779 | 0.00851 | 0.0189
2 | Nc1cccc2c1CN(C1CCC(=O)NC1=O)C2=O (configuration not stated) [Lenalidomide] | 0 | 0 | 0 | 1.39 | 0 | 0 | 0 | 0 | 0 | 0 | 0 | 0 | 0 | 0 | 0 | > 10 | > 10 | > 10 |  | > 10 | > 10 | > 10 | > 10 | > 10 | > 10 | > 10 | > 10 | > 10 | > 10 | > 10
3 | COc1nc(N)nc2c1ncn2[C@@H]1O[C@H](CO)[C@@H](O)[C@@H]1O [Nelarabine] | 0 | 0 | 0.277 | 0 | 0 | 0 | 0 | 0.0337 | 0 | 0 | 0 | 0 | 0 | 0 | 0 | > 10 | > 10 |  | > 10 | > 10 | > 10 | > 10 |  | > 10 | > 10 | > 10 | > 10 | > 10 | > 10 | > 10
4 | Nc1cc(C(F)(F)F)c(-c2cc(N3CCOCC3)nc(N3CCOCC3)n2)cn1 [Buparlisib (BKM-120)] | 5.66 | 11.1 | 10.8 | 9.9 | 7.44 | 8.94 | 4.41 | 6.24 | 5.88 | 7.01 | 8.09 | 9.5 | 9.27 | 7.4 | 9.32 | 1.73 | 0.87 | 0.561 | 0.622 | 0.963 | 1.4 | 1.23 | 0.99 | 0.931 | 0.71 | 1.09 | 0.687 | 0.931 | 1.52 | 1.35
5 | COc1cc2c(N3CCN(C(=O)Nc4ccc(OC(C)C)cc4)CC3)ncnc2cc1OCCCN1CCCCC1 [Tandutinib] | 0 | 0 | 0 | 0 | 0 | 0 | 0 | 0 | 0 | 0 | 0 | 0 | 0 | 0 | 0 | > 1 | > 1 | > 1 | > 1 | > 1 | > 1 | > 1 | > 1 | > 1 | > 1 | > 1 | > 1 | > 1 | > 1 | > 1
6 | C#Cc1cccc(Nc2ncnc3cc(OC)c(OCCCCCCC(=O)NO)cc23)c1 [CUDC-101] | 9.66 | 21.9 | 7.91 | 8.89 | 4.71 | 10.2 | 2.26 | 3.69 | 4.14 | 4.08 | 8.37 | 11.7 | 10.3 | 12.3 | 12.6 | 1.19 | 0.137 | 1.72 | 1.54 | 1.74 | 1.13 | 3.52 | 1.6 | 1.92 | 1.15 | 1.18 | 0.656 | 1.19 | 0.803 | 0.68
7 | CO[C@H](C(=O)[C@@H](O)[C@@H](C)O)[C@@H]1Cc2cc3cc(O[C@H]4C[C@@H](O[C@@H]5C[C@@H](O)[C@H](O)[C@@H](C)O5)[C@H](O)[C@@H](C)O4)c(C)c(O)c3c(O)c2C(=O)[C@H]1O[C@H]1C[C@@H](O[C@@H]2C[C@@H](O)[C@@H](O[C@@H]3C[C@](C)(O)[C@H](O)[C@@H](C)O3)[C@@H](C)O2)[C@H](O)[C@@H](C)O1 [Plicamycin  (Mithramycin A)] | 11.9 | 14.3 | 14.9 | 20.1 | 23.6 | 14.9 | 14.1 | 21.5 | 19 | 22.1 | 17.4 | 22 | 18.4 | 13.2 | 13.7 | 0.357 | 0.542 | 0.401 | 0.15 | 0.0645 | 0.495 | 0.318 | 0.0453 | 0.0665 | 0.0586 | 0.057 | 0.0363 | 0.0846 | 0.11 | 0.632
